Source: US6194173A, “Binding proteins for phosphoinositides, GRP1 or general receptor 1 for phophoinositide” (priority 1999, dated 2001)
Like-named read-outs stand apart in the source and are kept apart here. Each block holds one molecule with its values, some of them ahead of it.

How the values were obtained:
[1] = biological target: T1, PH domain of GRP (Mus musculus, UniProt O08967); assay: Binding specificity of the GRP PH domain for 32P-labeled phosphoinositides (GST-PH on nitrocellulose); design: species or system murine; conditions: GST-PH, 25,000 cpm lipid; relative to GST
T1 sequence (O08967 239-399): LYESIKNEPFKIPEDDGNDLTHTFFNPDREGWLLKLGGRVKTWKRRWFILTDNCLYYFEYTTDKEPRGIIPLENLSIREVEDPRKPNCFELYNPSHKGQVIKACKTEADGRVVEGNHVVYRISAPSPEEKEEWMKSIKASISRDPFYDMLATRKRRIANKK
Procedure: The 3'-phosphatidylinositol probes labeled at the 3' position were generated using GST-p110 PI3-kinase purified from recombinant bacculovirus infected Sf 9 cells, using either purified phosphatidylinositol phosphates or crude brain lipid. Briefly, 20 mg phospholipid in chloroform was dried under N2 and resuspended in […] of buffer containing Tris-HCl pH 7.4, EDTA 1 mM and incubated in […] phopsphorylation media containing 20 mM Tris-HCl pH 7.4, 100 mM NaCl, 10 mM MgCl2, 0.5 mM EGTA. 0.2 mM adenosine, GST-p110 and 5-10 mCi [g-^32 P]ATP (5 Ci/umol). The reaction was carried out for 2 h at room temperature, quenched by addition of 0.2 ml of 1M HCl, followed by 0.5 ml of chloroform:methanol (1:1). The organic phase containing phospholipids was washed 4 times with 0.4 ml of methanol:HCl (1: 1) and stored at -70° C. until use. Just before use, the lipid was dried under a stream of nitrogen with phosphatidyl serine corresponding to a final concentration of 20 mg/ml. The identities of the PI3-P, PI3,4-P2 and PI3,4,5-P3 were confirmed by TLC and HPLC analysis.
To generate the GST fusion proteins, PCR reactions using the primers: […] (SEQ ID NO:9) and […] (SEQ ID NO:10) for the GST-N construct, […] (SEQ ID NO:11) and […] (SEQ ID NO:12) for the GST-Sec7 construct, […] (SEQ ID NO:13) and […] (SEQ ID NO:14) for the GSTPH construct, and […] […] The filters were washed four times with 1 mL assay buffer and counted in a scintillation counter.
In order to determine whether PI(3,4,5)P3 binding could be localized to specific sequences within the GRP structure, GST fusion proteins containing either residues 239 to 399 (PH domain), residues 52 to 260 (Sec7 domain), or residues 5 to 71, full length GRP residues 5-399 were expressed in bacteria and purified on glutathione-conjugated beads. […] 150 pmol of the proteins were spotted on nitrocellulose filters, incubated with [^32 P]PI(3,4,5)P3 and the amount of bound lipid was determined as described. […] Nitrocellulose filters with GST-PH were incubated with 25,000 cpm of each of the phospholipids and the amount of bound lipid determined as described above. […]

[2] = biological target: T2, proteins encoded by both brain and adipocyte cDNA clones (GRP) (Mus musculus, UniProt O08967); assay: Binding of 32P-labeled phosphoinositides to protein of isolated cDNA clones on nitrocellulose filters (library screen); conditions: library screening conditions
T2 construct: lack four residues
T2 sequence (O08967 5-399): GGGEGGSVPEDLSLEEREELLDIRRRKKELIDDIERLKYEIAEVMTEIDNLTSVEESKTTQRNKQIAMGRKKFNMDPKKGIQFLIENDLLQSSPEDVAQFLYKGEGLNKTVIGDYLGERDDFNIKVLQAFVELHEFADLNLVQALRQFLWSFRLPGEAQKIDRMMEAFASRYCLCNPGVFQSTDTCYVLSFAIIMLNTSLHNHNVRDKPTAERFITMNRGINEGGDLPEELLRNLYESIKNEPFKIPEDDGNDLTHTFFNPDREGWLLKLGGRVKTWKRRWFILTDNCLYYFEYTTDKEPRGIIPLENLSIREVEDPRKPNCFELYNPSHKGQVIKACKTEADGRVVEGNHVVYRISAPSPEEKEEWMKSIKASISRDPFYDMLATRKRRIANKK

[3] = biological target: T1, PH domain of GRP; assay: Competition for [3H]dioctanoyl PtdIns(3,4,5)P3 binding to the PH domain of GRP; design: GST fused to the PH region of GRP (amino acids 239-399); made in house; host or cells: bacteria
Procedure: (§1) Binding assays were performed as described in (Rameh, L. E. et al., J. Biol. Chem., In Press). Briefly, GST fused to the PH region of GRP (amino acids 239-399) was bound to glutathione immobilized on agarose beads (Sigma). Synthetic [^3 H]-labeled diotanoyl PtdIns(3,4,5)P3 was added, and after one hour the beads were separated from the supernatant by centrifugation. The amount of [^3 H]-PtdIns(3,4,5)P3 bound to the PH domain was calculated by subtracting the amount of free [^3 H] present in supernatants from GST-GRP from the amount of free [^3 H] in supernatants from control GST. The data was fitted to the equation [bound]=Bmax×[free]/(KD + [free]) by least squares curve fit. For the competition assays the beads containing the GST-fusion proteins were incubated with 2.5 μM[^3 H]-labeled dioctanoyl PtdIns(3,4,5)P3 bound was calculated based on the amount of [^3 H] bound to the beads in the absence of competitor. The total [^3 H] bound to the GST control was less then 0.5% of the total [^3 H] bound to GRP PH domain. The data was fitted to the equation % bound=100-n×L/Klapp +L) where n is the % specific binding, L is the concentration of unlabeled lipid added and Klapp is the apparent competitive dissociation constant. The rations of the apparent dissociation constants accurately reflect the ratios of the true dissociation constants under the present experimental conditions (Rameh, L. E. et al., J. Biol. Chem., In Press).
(§2) The data depicted in FIG. 8 indicate that receptor signaling through PI3-kinases, which generates PtdIns(3,4,5)P3, may specifically regulate ARF proteins through GRP. In order to further test this, the relative binding affinities of PtdIns(3,4,5)P3 versus PtdIns (4,5)P2, which is constitutively present in cell membranes, for the PH domain of GRP were determined. A GST fusion protein of the PH domain of GRP was incubated with various concentrations of synthetic [^3 H]dioctanoyl PtdIns(3,4,5)P3 and binding was determined (FIG. 9A). These experiments show high affinity binding of this polyphosphoinositide,with a calculated Kd=0.5 μM.

[4] = biological target: T3, GRP (Mus musculus, UniProt O08967); assay: Effect of phosphoinositides on GRP-catalyzed ARF1 guanine nucleotide exchange; assay type: biochemical; conditions: 25 μM lipid, 0.15 μM GRP
T3 construct: GST (N, cleaved yes); made in house; host or cells: GRP from pGEX-4T; ARF1 from baculovirus-infected Sf-9 cells
T3 sequence (O08967 1-399): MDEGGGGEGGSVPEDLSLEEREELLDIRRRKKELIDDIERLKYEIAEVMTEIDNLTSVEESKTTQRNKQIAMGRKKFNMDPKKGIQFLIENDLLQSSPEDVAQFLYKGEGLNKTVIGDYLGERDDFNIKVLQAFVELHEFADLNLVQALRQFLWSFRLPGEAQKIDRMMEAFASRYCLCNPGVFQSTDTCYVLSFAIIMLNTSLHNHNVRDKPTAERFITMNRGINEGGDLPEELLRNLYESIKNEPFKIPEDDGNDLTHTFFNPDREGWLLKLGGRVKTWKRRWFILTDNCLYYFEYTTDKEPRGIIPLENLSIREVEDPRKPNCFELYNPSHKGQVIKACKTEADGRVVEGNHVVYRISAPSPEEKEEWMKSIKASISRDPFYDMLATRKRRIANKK

[5] = biological target: T3, GRP; assay: Inhibition by inositol phosphates of PtdIns(3,4,5)P3-stimulated GRP-mediated ARF1 exchange; assay type: biochemical; conditions: 100 μM inositol phosphate, 0.05% cholate and 0.05% CHAPS
[6] = biological target: T4, GSTPH(GRP) (Mus musculus, UniProt O08967); assay: Competition of [32P]PI(3,4,5)P3 binding to GST-PH by inositol phosphate head groups; design: species or system murine
T4 construct: residues 239 to 399 (PH domain); made in house; host or cells: bacteria
T4 sequence (O08967 239-399): T1 sequence (O08967 239-399)
Source text: To generate the GST fusion proteins, PCR reactions using the primers: […] (SEQ ID NO:9) and […] (SEQ ID NO:10) for the GST-N construct, […] (SEQ ID NO:11) and […] (SEQ ID NO:12) for the GST-Sec7 construct, […] (SEQ ID NO:13) and […] (SEQ ID NO:14) for the GSTPH construct, and […] (SEQ ID NO:15) and […] (SEQ ID NO:16) for the GSTGRP constructs. The sequences of the PCR products were verified, and cloned into pGEX-5X-3 in the EcoRI and Xba 1 sites. The bacteria were lysed and the fusion proteins were bound to gluthathione agarose according to standard procedures. Elution was effected by incubation of the beads with one volume 20 mM Hepes, 100 mM NaCl, 1 mM dithiotreitol (H buffer) supplemented with 10 mM gluthatione and 1% sodium cholate, and the eluate was dialyzed extensively against H buffer. For binding assays, protein was bound to nitrocellulose using a BIO-RAD BIO-DOT™ apparatus, using 150 pmol per well for binding assays and 7.5 pmol for competition assays. The nitrocellulose was washed in assay buffer, and 3 mm circles of the filters containing the protein were cut out and incubated in […] assay buffer with the relevant lipids and competitors for 2 h under constant agitation. The filters were washed four times with 1 mL assay buffer and counted in a scintillation counter.
The specificity of the GRP PH domain for binding [^32 P]PI(3,4,5,)P3 was also examined with respect to competition by the inositol phosphate head groups of the phosphoinositides. […] More specifically, 25,000 cpm of [^32 P]PI(3,4,5)P3 was incubated with varying concentrations of inositol 1 ,3,4,5P4 and bound radioactivity determined. The amount of radioactivity bound was calculated as percent of that bound in the absence of competitor. The values are means of quadruplicate measurements, and the error bars are standard deviations. The lack of inhibition by the latter two phosphoinositides is particularly striking since they carry the same charge as the inhibitor […] The concentration of inositol 1,3,4,5-P4 that inhibited binding of [^32 p]PI(3,4,5,)P3 half maximally was about 3-6 μM (FIG. 5A). Taken together, the data in FIGS. 4 and 5 indicate extraordinary specificity of the GRP PH domain for PI(3,4,5)P3. […] The binding to GST fusion proteins containing amino acids 462-569 of murine Sos or amino acid 13-115 of murine IRS-1 was assayed using 150 pmoles of protein bound to the filters. Competition of binding to 7.5 pmoles of GST-PH was measured in the presence of 100 μM of the competitors. The values were calculated as in (A), and are means of quadruplicate measurements and the error bars represent standard deviations.

[7] = system: PH domain of PLCγ1; conditions: cited from earlier work
[8] = biological target: T1, PH domain of GRP; assay: Binding of [3H]dioctanoyl PtdIns(3,4,5)P3 to GST-PH of GRP; design: GST fused to the PH region of GRP (amino acids 239-399); made in house; host or cells: bacteria
Procedure: as §1, with “The total [^3 H] bound to the GST control was less then 0.5% of the total [^3 H] bound to GRP PH domain. The data was fitted to the equation % bound=100-n×L/Klapp +L) where n is the % specific binding, L is the concentration of unlabeled lipid added and Klapp is the apparent competitive dissociation constant. The rations of the apparent dissociation constants accurately reflect the ratios of the true dissociation constants under the present experimental conditions (Rameh, L. E. et al., J. Biol. Chem., In Press).” left out
as §2, with “A GST fusion protein of the PH domain of GRP was incubated with various concentrations of synthetic [^3 H]dioctanoyl PtdIns(3,4,5)P3 and binding was determined (FIG. 9A).” left out

[9] = system: receptor-regulated cell adhesion; conditions: cited from earlier work

Molecule: PI(3)P
- binding of labeled phosphoinositide to the GRP PH domain [1]: failed to bind
- binding of labeled phosphoinositide to the cDNA clone protein [2]: not

- apparent affinity lower than that for dioctanoyl PtdIns(3,4,5)P3 ([3]; dioctanoyl): about two orders of magnitude lower
Molecule: CCCCCCCC(=O)OC[C@H](COP(=O)(O)O[C@@H]1[C@H](O)[C@H](O)[C@@H](OP(=O)(O)O)[C@H](OP(=O)(O)O)[C@H]1O)OC(=O)CCCCCCC [dioctanoyl PtdIns(4,5)P2]

Molecule: PtdIns(3,4)P2
- binding of labeled phosphoinositide to the GRP PH domain [1]: failed to bind
- binding of labeled phosphoinositide to the cDNA clone protein [2]: not
- stimulation of ARF1 exchange activity in the presence of GRP ([4]; 0.05% cholate and 0.05% CHAPS (low negative charge)): little or no effect
- stimulation of ARF1 exchange activity in the presence of GRP ([4]; 0.1% cholate (high negative charge)): stimulated

- inhibition of PtdIns(3,4,5)P3-stimulated GRP-mediated ARF1 guanine nucleotide exchange [5]: failed to inhibit
- inhibition of [^32 P]PI(3,4,5)P3 binding to GST-PH(GRP) ([6]; 100 μM competitor): little or no effect
- binding of inositol phosphate to GRP polypeptides ([6]; statement in the description): not
Molecule: O=P(O)(O)O[C@@H]1[C@H](O)[C@H](O)[C@@H](OP(=O)(O)O)[C@H](OP(=O)(O)O)[C@H]1O [Ins(1,4,5)P3, D-myo-inositol 1,4,5 trisphosphate]
- interaction with isolated PH domain of PLCγ1 [7]: high affinity

- Kd [8]: 510 nM
- Kd ([8]; synthetic [^3 H]dioctanoyl PtdIns(3,4,5)P3): 500 nM
Molecule: CCCCCCCC(=O)OCC(COP(=O)(O)O[C@H]1[C@H](O)[C@@H](OP(=O)(O)O)[C@H](OP(=O)(O)O)[C@@H](OP(=O)(O)O)[C@H]1O)OC(=O)CCCCCCC (stereo partly drawn) [[^3 H]dioctanoyl PtdIns(3,4,5)P3]

Molecule: COC[C@H]1OC(=O)c2coc3c2[C@@]1(C)C1=C(C3=O)[C@@H]2CCC(=O)[C@@]2(C)C[C@H]1OC(C)=O [wortmannin]
- receptor-regulated cell adhesion [9]: inhibits receptor-regulated cell adhesion

- affinity, fold higher compared to PtdIns(4,5)P2 ([3]; identical fatty acyl side chains (dioctanoyl)): 50-100 fold
Molecule: CCCCCCCC(=O)OC[C@H](COP(=O)(O)O[C@H]1[C@H](O)[C@@H](OP(=O)(O)O)[C@H](OP(=O)(O)O)[C@@H](OP(=O)(O)O)[C@H]1O)OC(=O)CCCCCCC [dioctanoyl PtdIns(3,4,5)P3]
